Details: Liquid, Closed cell (Static) method

FC(F)(F)C1(F)OC1(F)F (centres undefined) [2,2,3-trifluoro-3-(trifluoromethyl)oxirane]
Details | vapor or sublimation pressure [kPa]
302.95 K | 786
307.93 K | 896
312.93 K | 1015
317.86 K | 1150
322.92 K | 1298
327.88 K | 1474
332.87 K | 1658
337.87 K | 1864
342.88 K | 2075
347.85 K | 2313

FCF [difluoromethane]
Details | vapor or sublimation pressure [kPa]
280.59 K | 1022
283.05 K | 1109
285.52 K | 1195
288.02 K | 1280
290.46 K | 1364
293.02 K | 1474
295.49 K | 1578
298.01 K | 1684
300.48 K | 1793
302.94 K | 1918
305.46 K | 2051
307.91 K | 2179
310.48 K | 2318
312.9 K | 2459
315.43 K | 2614
317.89 K | 2772
320.41 K | 2948
322.92 K | 3120
325.42 K | 3303
327.9 K | 3498
330.35 K | 3694
332.91 K | 3910
335.4 K | 4138
337.93 K | 4370
340.43 K | 4602
342.88 K | 4854
345.4 K | 5117
347.89 K | 5392

C=CCC [1-butene]
Details | vapor or sublimation pressure [kPa]
302.9 K | 343
307.83 K | 396
312.96 K | 456
318.05 K | 521
322.94 K | 593
328.06 K | 671
332.97 K | 759
337.99 K | 855
342.98 K | 957
347.93 K | 1069
353.18 K | 1197
